pEC50: −log10 of the molar value. Activity calls are given as the source filed them. The rule behind the calls is not given here.
How the values were obtained:
[1] = Toxicity in Balb/c mouse assessed as drug tolerance at 5 mg/kg, iv measured upto 24 hrs by LC-MS/MS analysis; format: organism-based; settings: in vivo
[2] = Toxicity in Balb/c mouse assessed as side effects at 10 mg/kg, ip measured upto 24 hrs by LC-MS/MS analysis; format: organism-based; settings: in vivo
[3] = molecular target: T1, Tyrosine-protein kinase ZAP-70 (Homo sapiens) (UniProt P43403); assay: Induction of degradation of ZAP-70 in human Jurkat cells at 0.01 to 10 uM by immunoblotting analysis; format: cell-based; settings: dose 0.01-10 µM
T1 sequence (whole entry): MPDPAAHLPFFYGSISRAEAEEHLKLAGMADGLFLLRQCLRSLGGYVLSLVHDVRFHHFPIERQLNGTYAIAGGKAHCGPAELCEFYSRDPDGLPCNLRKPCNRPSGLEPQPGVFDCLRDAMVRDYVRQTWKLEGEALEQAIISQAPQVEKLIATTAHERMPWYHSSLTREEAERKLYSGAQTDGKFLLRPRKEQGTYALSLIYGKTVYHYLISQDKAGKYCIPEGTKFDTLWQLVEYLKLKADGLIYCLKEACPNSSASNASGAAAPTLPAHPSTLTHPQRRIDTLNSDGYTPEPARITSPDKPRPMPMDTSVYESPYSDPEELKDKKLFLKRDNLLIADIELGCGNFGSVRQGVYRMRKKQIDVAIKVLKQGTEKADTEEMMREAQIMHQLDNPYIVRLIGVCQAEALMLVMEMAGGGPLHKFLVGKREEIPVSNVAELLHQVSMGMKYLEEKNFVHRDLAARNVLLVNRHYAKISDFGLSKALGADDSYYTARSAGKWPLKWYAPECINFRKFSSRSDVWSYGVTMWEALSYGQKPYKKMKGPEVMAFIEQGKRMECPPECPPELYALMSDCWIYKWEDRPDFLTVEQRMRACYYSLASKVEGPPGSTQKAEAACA

Jurkat [4] = assay: Induction of degradation of RSK in human Jurkat cells at 0.01 to 10 uM by immunoblotting analysis; format: cell-based; settings: dose 0.01-10 µM
[5] = molecular target: T2, Protein cereblon/Tyrosine-protein kinase ITK/TSK (Homo sapiens, UniProt Q08881+Q96SW2); assay: PROTAC activity at CRBN/ITK in human Jurkat cells assessed as induction of ITK degradation at 100 nM pretreated with proteosome inhibitor carfilzomib for 1 hr followed by compound addition and measured after 2 hrs by Western blot analysis; format: cell-based
Target sequence in this assay (Q08881 whole entry, looked up): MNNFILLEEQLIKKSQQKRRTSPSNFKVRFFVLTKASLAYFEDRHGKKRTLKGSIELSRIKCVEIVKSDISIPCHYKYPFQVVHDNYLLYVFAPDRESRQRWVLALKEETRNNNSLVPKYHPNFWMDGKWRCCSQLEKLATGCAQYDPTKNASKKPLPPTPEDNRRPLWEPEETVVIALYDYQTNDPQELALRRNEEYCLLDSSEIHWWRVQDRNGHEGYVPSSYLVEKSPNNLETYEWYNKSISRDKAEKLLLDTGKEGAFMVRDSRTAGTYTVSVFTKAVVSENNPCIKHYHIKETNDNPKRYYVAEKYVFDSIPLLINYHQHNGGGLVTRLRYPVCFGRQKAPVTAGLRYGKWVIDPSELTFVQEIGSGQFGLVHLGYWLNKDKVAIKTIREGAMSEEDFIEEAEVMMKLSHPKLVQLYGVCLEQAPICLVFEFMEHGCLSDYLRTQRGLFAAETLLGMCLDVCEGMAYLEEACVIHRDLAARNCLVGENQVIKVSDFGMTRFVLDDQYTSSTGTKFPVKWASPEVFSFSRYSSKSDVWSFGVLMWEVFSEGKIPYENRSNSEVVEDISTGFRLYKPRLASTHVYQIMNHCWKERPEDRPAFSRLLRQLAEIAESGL
Target sequence in this assay (Q96SW2 whole entry, looked up): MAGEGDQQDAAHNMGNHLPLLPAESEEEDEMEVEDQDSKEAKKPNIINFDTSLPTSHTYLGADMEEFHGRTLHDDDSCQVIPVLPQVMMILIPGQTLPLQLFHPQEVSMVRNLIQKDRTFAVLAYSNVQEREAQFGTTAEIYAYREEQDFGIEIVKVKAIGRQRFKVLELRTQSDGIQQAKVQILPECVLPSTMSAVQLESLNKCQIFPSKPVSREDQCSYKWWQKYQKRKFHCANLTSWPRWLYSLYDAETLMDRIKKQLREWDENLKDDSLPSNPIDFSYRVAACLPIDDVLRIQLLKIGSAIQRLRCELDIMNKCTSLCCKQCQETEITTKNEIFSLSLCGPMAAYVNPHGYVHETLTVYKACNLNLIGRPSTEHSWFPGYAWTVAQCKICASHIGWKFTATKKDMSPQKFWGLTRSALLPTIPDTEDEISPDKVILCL

[6] = molecular target: T2, Protein cereblon/Tyrosine-protein kinase ITK/TSK; assay: PROTAC activity at CRBN/ITK in human Jurkat cells assessed as induction of ITK degradation at 100 nM pretreated with 5-amino-2-(2,6-dioxopiperidin-3-yl)isoindoline-1,3-dione for 1 hr followed by compound addition and measured after 2 hrs by Western blot analysis; format: cell-based
Target sequence in this assay (Q08881 whole entry, looked up): as the sequence (Q08881 whole entry, looked up) above
Target sequence in this assay (Q96SW2 whole entry, looked up): as the sequence (Q96SW2 whole entry, looked up) above

[7] = molecular target: T2, Protein cereblon/Tyrosine-protein kinase ITK/TSK; assay: PROTAC activity at CRBN/ITK in human MOLT-4 cells assessed as induction of ITK degradation; format: cell-based
Target sequence in this assay (Q08881 whole entry): as the sequence (Q08881 whole entry, looked up) above
Target sequence in this assay (Q96SW2 whole entry): as the sequence (Q96SW2 whole entry, looked up) above

[8] = molecular target: T2, Protein cereblon/Tyrosine-protein kinase ITK/TSK; assay: PROTAC activity at CRBN/ITK in human Jurkat cells assessed as reduction in ITK protein at 100 nM measured within 4 hrs; format: cell-based
Target sequence in this assay (Q08881 whole entry, looked up): as the sequence (Q08881 whole entry, looked up) above
Target sequence in this assay (Q96SW2 whole entry, looked up): as the sequence (Q96SW2 whole entry, looked up) above

[9] = molecular target: T2, Protein cereblon/Tyrosine-protein kinase ITK/TSK; assay: PROTAC activity at CRBN/ITK in human Jurkat cells assessed as induction of ITK degradation by Western blot analysis; format: cell-based; settings: read-out: EC50
Target sequence in this assay (Q08881 whole entry): as the sequence (Q08881 whole entry, looked up) above
Target sequence in this assay (Q96SW2 whole entry): as the sequence (Q96SW2 whole entry, looked up) above

[10] = molecular target: Tyrosine-protein kinase Yes (Homo sapiens) (UniProt P07947); assay: Induction of degradation of YES in human Ramos cells at 0.01 to 10 uM by immunoblotting analysis; format: cell-based; settings: dose 0.01-10 µM
Chain of Tyrosine-protein kinase Yes (Homo sapiens) (P07947 2-543 limits assumed): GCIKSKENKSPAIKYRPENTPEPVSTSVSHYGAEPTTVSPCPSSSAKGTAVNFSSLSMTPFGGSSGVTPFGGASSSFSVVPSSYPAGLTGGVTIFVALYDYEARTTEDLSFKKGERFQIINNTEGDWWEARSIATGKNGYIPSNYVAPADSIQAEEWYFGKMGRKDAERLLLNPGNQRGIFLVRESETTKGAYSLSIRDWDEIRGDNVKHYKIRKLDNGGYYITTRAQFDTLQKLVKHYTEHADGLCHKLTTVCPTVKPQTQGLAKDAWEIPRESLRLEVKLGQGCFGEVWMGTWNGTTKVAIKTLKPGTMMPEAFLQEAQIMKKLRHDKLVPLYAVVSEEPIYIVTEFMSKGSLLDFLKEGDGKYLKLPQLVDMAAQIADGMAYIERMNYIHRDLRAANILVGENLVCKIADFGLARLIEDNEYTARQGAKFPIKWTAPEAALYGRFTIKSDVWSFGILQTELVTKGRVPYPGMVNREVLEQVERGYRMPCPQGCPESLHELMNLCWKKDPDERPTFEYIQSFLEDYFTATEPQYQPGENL

Interleukin-2 = Interleukin-2 (Homo sapiens, UniProt P60568); assay: Inhibition of IL-2 in human Jurkat cells pretreated with compound for 4 hrs followed by anti-CD3/CD28 stimulation by ELISA analysis; format: cell-based
Chain of Interleukin-2 (P60568 whole entry): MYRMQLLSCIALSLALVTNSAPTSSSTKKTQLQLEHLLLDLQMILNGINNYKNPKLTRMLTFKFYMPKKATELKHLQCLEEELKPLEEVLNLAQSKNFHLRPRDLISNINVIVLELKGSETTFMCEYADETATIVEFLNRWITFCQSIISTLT

[11] = Volume of distribution at steady state in Balb/c mouse at 5 mg/kg, iv measured upto 24 hrs by LC-MS/MS analysis; format: ADME, organism-based; settings: in vivo, read-out: Vdss
[12] = Volume of distribution at steady state in Balb/c mouse at 10 mg/kg, ip measured upto 24 hrs by LC-MS/MS analysis; format: ADME, organism-based; settings: in vivo
[13] = AUC (0 to infinity) in Balb/c mouse at 5 mg/kg, iv measured upto 24 hrs by LC-MS/MS analysis; format: ADME, organism-based; parameters: time < 24 hrs, dose 5 mg/kg, route iv; settings: in vivo
Jurkat [14] = assay: Inhibition of TCR signalling in human Jurkat cells assessed as reduction in PLCgamma1 phosphorylation preincubated with cells for 12 hrs followed by anti-CD-2 antibody stimulation for 5 mins by Western blot analysis; format: cell-based; settings: dose 0.01-3 µM
[15] = MRT last in Balb/c mouse at 10 mg/kg, ip measured upto 24 hrs by LC-MS/MS analysis; format: ADME, organism-based; settings: in vivo
[16] = molecular target: Tyrosine-protein kinase Lck (Homo sapiens) (UniProt P06239); assay: Induction of degradation of LCK in human Jurkat cells at 0.01 to 10 uM by immunoblotting analysis; format: cell-based; settings: dose 0.01-10 µM
Chain of Tyrosine-protein kinase Lck (Homo sapiens) (P06239 2-509 limits assumed): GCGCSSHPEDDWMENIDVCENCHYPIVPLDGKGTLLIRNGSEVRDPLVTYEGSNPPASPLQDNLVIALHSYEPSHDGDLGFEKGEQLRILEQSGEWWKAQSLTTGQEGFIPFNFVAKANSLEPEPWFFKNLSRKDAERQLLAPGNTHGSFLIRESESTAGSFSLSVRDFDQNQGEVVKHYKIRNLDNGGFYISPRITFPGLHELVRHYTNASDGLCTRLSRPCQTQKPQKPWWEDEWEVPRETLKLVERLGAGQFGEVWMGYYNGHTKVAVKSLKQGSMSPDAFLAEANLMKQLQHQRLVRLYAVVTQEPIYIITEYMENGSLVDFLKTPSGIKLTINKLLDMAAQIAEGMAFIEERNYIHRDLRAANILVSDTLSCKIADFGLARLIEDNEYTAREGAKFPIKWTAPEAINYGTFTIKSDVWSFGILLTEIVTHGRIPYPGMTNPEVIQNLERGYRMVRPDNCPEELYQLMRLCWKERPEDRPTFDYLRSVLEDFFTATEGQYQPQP

Activity [3]: inactive
Activity [5]: inactive
Activity [6]: inactive
DC50 [7]: 6 nM
Activity [8]: Active
pEC50 [9]: 8.15
Activity [10]: inactive
pEC50 (Interleukin-2): 7.60
Vd [11]: 12.9 L/kg
Vdss [12]: 18.4 L/kg
AUC(0-inf) [13]: 1080 ng·h/mL
MRT last at 24 h [15]: 1.06 h
Activity [16]: inactive
SMILES: CN(CCCCCC(=O)Nc1ccc2c(c1)C(=O)N(C1CCC(=O)NC1=O)C2=O)CC[C@@H](c1ccccc1)n1cc(NC(=O)c2n[nH]c3c2CCC(C)(C)C3)cn1.O=C(O)C(F)(F)F (some centres not stated)
Activity [1]: Non-Toxic
Activity [2]: Non-Toxic
Activity (Jurkat [4]): inactive
inhibition (Jurkat [14]): Dose-Dependent Effect

From ChEMBL document CHEMBL5380833 (J Med Chem, 2023)
